Where a name gives a salt, the structure may show the parent alone. Read-outs that look alike come from different tables or passages of the source.
What was measured:
[1] = tested on: HepG2 cells; test: Antiproliferative MTT assay on HepG2 cell lines; type: cell-based, Human; details: read-out: IC50 (50% inhibitory concentration), antiproliferative effect, 24 and 48 h of incubation, mean ± SD of 3 tests
Protocol: Inhibitory rate (%) = [(O.DDrug − O.DBlank)/(O.DControl − O.DBlank)] ×100%. The IC50 values were calculated with probit analysis using software SPSS version 21.0.
(§1) Murine macrophages (RAW 264.7) were cultured in Dulbecco’s modified Eagle’s medium (DMEM) supplemented with the addition of 10% fetal bovine serum (FBS) and 1% streptomycin (10,000 μg/mL)-penicillin (10,000 U/mL) at 37 °C in a humidified incubator under 5% CO2. HepG2 cells were cultured at 37 °C under 5% CO2. The optimal fermentation culture medium comprised DMEM, 1% mixed penicillin (10,000 U mL^−1), 1% HEPES (BioFroxx, Hesse, Einhausen), and 10% fetal bovine serum (FBS), as well as streptomycin (SM) (10,000 μg/mL^−1) fluid. In all experiments, cells were left to acclimate for 24 h before any treatments.
Briefly, the cells were incubated in 96-well microplates (1 × 10^5 per well) and allowed to adhere for 24 h before drug administration. Then, the cell lines were treated with test compounds 1–36 at five concentrations (3.12, 6.25, 12.5, 25, and 50 μM). At 24 and 48 h of incubation, cells were treated with MTT (200 µL, 5.0 mg/mL) and dissolved in the culture medium, for 1 h under at 37 °C under a 5% CO2 humidified atmosphere. The MTT was then removed carefully and resolved with DMSO (150 μL/well). Optical density was recorded using a Thermo Fisher Scientific microplate reader at 490 nm. Cisplatin (CP) and medium were used as positive and negative controls, respectively.

[2] = Cytotoxicity on RAW 264.7 macrophages (MTT cell viability); type: cell-based, Murine; details: mouse
Protocol: The potential cytotoxicity of compounds on RAW 264.7 macrophages cells was determined before executing further studies. Macrophage cells were treated with compounds, and a mitochondria colorimetric (MTT) assay was used to test cell survival.
as §1
To measure cell viability, an MTT assay was performed. […] After washing twice with a PBS buffer, 20 μL of the MTT solution was added to each well, and incubation continued for 4 h. Optical density (O.D) was measured at 490 nm by a microplate reader (Thermo Fisher Scientific, Waltham, MA, USA). The relative cell viability was calculated in contrast to the normal control group.

[3] = tested on: LPS-induced NO production in RAW 264.7 macrophages; test: Inhibition of LPS-induced NO production in macrophages (Griess reagent); type: cell-based, Murine; details: Mus musculus, RAW264.7, read-out: IC50 (50% inhibitory concentration), NO production inhibition
Protocol: NO is one of the immune effectors used by macrophages to defend our bodies against intracellular pathogens. […] NO production inhibition (%) = [(O.DLPS − O.DDrug)/(O.DLPS − O.DBlank)] × 100%. The determination of IC50 was calculated using probit analysis in SPSS version 21.0.
as §1
Activated macrophage cells could express inducible nitric oxide synthase (iNOS), catalyzing the production of NO from L-arginine. […] Afterward, costimulation for 24 h at 37 °C was carried out in an incubator under 5% CO2. Then, Griess reagents I and II (100 μL) were mixed with cell culture medium (70 μL). Prior to measuring the optical density, plates were incubated at room temperature for 10 min, and the absorbance at 540 nm was measured using a Thermo Fisher Scientific microplate reader. N(G)-monomethyl-L-arginine, monoacetate salt (L-NMMA), and the medium were used as positive and negative controls, respectively.

[4] = RAW 264.7 pretreated with compound 1 h, then LPS 1 μg/mL for 24 h, Griess, mean ± SD of 3 tests

Compound	IC50 ([1]; Homo sapiens) [µM]	CC50 [2] [µM]	IC50 [3, 4] [µM]	other results
COc1ccc(-c2oc3c(CC=C(C)C)c(O)cc(O)c3c(=O)c2O)cc1O [Compound 21, 8-(3,3-dimethylallyl)-tamarixetin]	26.4 ± 0.3			
COc1cc(O)c(CC=C(C)C)c2c1C(=O)CC(c1ccc(O)cc1)O2 (stereo not shown) [Compound 2, isoxanthohumol]		> 50	8.4 ± 0.7	
CC(C)=CCc1c(O)c(CC=C(C)C)c2c(c1O)C(=O)C[C@@H](c1ccc(O)cc1O)O2 [Compound 15, kushenol E]		18.8 ± 0.3	9.3 ± 0.7	
C=C(C)[C@H](CC=C(C)C)Cc1c(O)cc(OC)c2c1O[C@H](c1ccc(O)cc1O)[C@@H](O)C2=O [Compound 29, kushenol I]		20.6 ± 1.1	7.2 ± 0.6	
CC(C)=CCc1c(O)cc(O)c2c(=O)c(O)c(-c3ccc(O)cc3)oc12 [Compound 19, noranhyoicaritin]	41.4 ± 0.6	> 50	12.4 ± 0.9	
C=C(C)[C@H](CC=C(C)C)Cc1c(O)cc(OC)c2c1O[C@H](c1ccc(O)cc1O)CC2=O [Compound 13, kurarinone]		33.8 ± 1	14.4 ± 0.4	
C=C(C)C(CC=C(C)C)Cc1c(O)cc(O)c2c(=O)c(O)c(-c3ccc(O)cc3)oc12 (stereo not shown) [Compound 22, 8-lavandulylkaempferol]	0.46 ± 0.1	13.8 ± 0.6	5.7 ± 0.4	
xanthogalenol [Compound 34]				IC50 [1]: 48.6 ± 0.8 µM
[H]/N=C(/NC)NCCC[C@H](N)C(=O)O [L-NMMA, N(G)-monomethyl-L-arginine, monoacetate salt, reference compound]				CC50 ([2]; RAW 264.7 macrophages, MTT, compound 1 h then LPS 1 μg/mL 24 h, mean ± SD of 3 tests): > 50 µM; IC50 [3]: 21.8 ± 0.9 µM
CC(C)=CCc1c(O)cc(O)c2c1O[C@H](c1ccc(O)cc1O)CC2=O [Compound 5, leachianone G]	37.6 ± 0.7			
N.N.[Cl][Pt][Cl] [Cisplatin, reference compound]				IC50 [1]: 24.5 ± 0.8 µM
CC(C)=CCc1c(O)cc(O)c2c1O[C@H](c1ccc(O)cc1)CC2=O [Compound 1, sophorafiavanone B]	34.9 ± 0.3			
C=C(C)C(CC=C(C)C)Cc1c(O)c(CC=C(C)C)c(O)c2c1O[C@H](c1ccc(O)cc1O)CC2=O (stereo partly shown) [Compound 16, kushenol B]	30.8 ± 1.1			

From article PMC10004487, “Flavonoids from the Roots of Sophora flavescens and Their Potential Anti-Inflammatory and Antiproliferative Activities” (Molecules, 2023)
